Consider one molecule from EP4796536A1, “CRYSTAL FORMS OF COMPOUND HAVING FUSED FIVE- AND SIX-MEMBERED RINGS, PREPARATION METHOD THEREFOR, AND USE THEREOF” (Hangzhou Polymed Biopharmaceuticals, Inc., priority 2023, dated 2025).

SMILES strings stand for the structures.

One assay has as its target T1, IRAK4 kinase (Homo sapiens, UniProt Q9NWZ3).
T1 construct: purchased Carna 09-145
T1 sequence (Q9NWZ3 1-460): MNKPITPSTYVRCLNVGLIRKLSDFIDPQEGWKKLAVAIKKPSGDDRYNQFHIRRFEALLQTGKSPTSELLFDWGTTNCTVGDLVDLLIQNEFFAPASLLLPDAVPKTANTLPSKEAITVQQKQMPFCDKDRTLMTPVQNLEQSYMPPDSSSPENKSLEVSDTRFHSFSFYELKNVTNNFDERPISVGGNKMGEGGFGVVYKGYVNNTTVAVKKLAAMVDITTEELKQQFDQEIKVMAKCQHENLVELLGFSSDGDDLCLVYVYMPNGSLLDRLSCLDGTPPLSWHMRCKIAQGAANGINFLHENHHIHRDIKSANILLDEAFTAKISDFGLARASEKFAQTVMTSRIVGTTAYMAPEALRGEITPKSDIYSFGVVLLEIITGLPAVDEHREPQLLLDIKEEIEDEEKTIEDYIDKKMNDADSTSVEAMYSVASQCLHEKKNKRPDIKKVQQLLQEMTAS
Nature of the assay: Inhibition of IRAK4 kinase activity, fluorescence microfluidic mobility assay. Format: biochemical. Particulars: IRAK4 6 nM, ATP 10 µM, substrate peptide FAM-P8 3 µM. The method, then:
Based on the experimental method of fluorescence microfluidic mobility assay, the IC50 value of competitive binding of IRAK4 kinase to ATP by the compound was determined. The initial detection concentration of the compound was 10 µM, which was 4-fold serially diluted to […] and assayed in duplicate. In this case, commercially available staurosporine was the standard control for the assay.
• 1) IRAK4 kinase was dissolved in kinase buffer (50 mM HEPES pH 7.5, 10 mM MgCl2, 2 mM DTT, and 0.01% Brij-35) at a final concentration of 6 nM. • 2) The substrate peptide FAM-P8 and ATP were dissolved in the above kinase buffer, and the final concentrations of the substrate peptide FAM-P8 and ATP for IRAK4 were 3 µM and 10 µM, respectively. • 3) Dilution of compound: the compound was first diluted to 50 µM, and then 4-fold serially diluted with DMSO. […] After incubation at 28°C for 1 hour, 25 µL of stop solution (100 mM HEPES pH 7.5, 50 mM EDTA, 0.2% Coating Reagent #3, and 0.015% Brij-35) was added to each well to terminate the reaction. • 5) Data reading: CaliperEZ Reader II instrument was used to read the conversion rate data. […]

The target in assay [1] is T2, IRAK4 protein in THP-1 cells (Homo sapiens, UniProt Q9NWZ3).
T2 construct: endogenous in cells; host or cells: THP-1
T2 sequence (Q9NWZ3 1-460): T1 sequence (Q9NWZ3 1-460)
The assay can be described thus: IRAK4 protein degradation in THP-1 cells by Western Blot. Format: cell-based. The note with it: 24 hours after administration. The method, then:
2.2.2.1 Based on the experimental method of immunoblot, i.e., Western Blot, THP-1 cell samples processed by gel electrophoresis were stained with specific antibodies, and the degrading activity of the compound on the IRAK4 protein in THP-1 cells was determined by analyzing the position and depth of staining. The detection concentrations of the compound were 0 µM, 0.3 µM, 1 µM, and 3 µM, and the compound was used to treat the cells for 8 hours, 16 hours, 24 hours, and 48 hours. In this case, glyceraldehyde-3-phosphate dehydrogenase (GAPDH) was the internal reference protein for the assay.
• Running buffer: 50 mL of MOPS SDS Running Buffer (20X) and 50 mL of 20× TBS Tween-20 buffer were diluted to 1L with deionized water as running buffer; • 5% skim milk (w/v): 5% skim milk was prepared by diluting 2.5 g of skim milk with 50 mL of 1× TBS Tween-20 buffer; • 5% BSA (w/v): 5% BSA was prepared by diluting 2.5 g of BSA with 50 mL of 1× TBS Tween-20 buffer; • Anti-IRAK4 antibody was diluted at 1:1000 with 5% BSA into a primary antibody working solution; • Goat Anti-Rabbit IgG H&L (HRP) was diluted at 1:2000 with 5% BSA into a secondary antibody working solution; • Goat Anti-Mouse IgG H&L (HRP) was diluted at 1:2000 with 5% BSA into a secondary antibody working solution. […]

As usually defined, the IC50 is the point on the concentration scale where inhibition reaches its midpoint. Low readings indicate greater potency, high ones weaker potency. By DC50 is commonly meant the concentration at which degradation of the target reaches its halfway point. A high value points to degradation only at high concentration. In turn, `COc1cc2nn(C3CC4(CCN(C(=O)C5CCN(c6ccc7c(c6)C(=O)N(C6CCC(=O)NC6=O)C7=O)CC5)CC4)C3)cc2cc1NC(=O)c1cccc(C(F)(F)F)n1` (centres unmarked) [X] displayed an IC50 against IRAK4 kinase of 26 nM. This molecule also came in with a DC50 in assay [1] of 4.02 nM.
